In patent US5935597A, “Drug delivery devices and methods for treatment of viral and microbial infections and wasting syndromes” (Cryopreservation Technologies CC, priority 1995, dated 1999):

Assays:
CD4 T-cell = assay: Example 7: CD4 T-cell counts in blood of HIV-1 patients; type: in vivo, human; conditions: certain patients; increase from 350; transdermal DMF
Description: (§1) Each patch was applied for a period of 12 hours, either once per week over a period of 12 weeks, or twice per week over a period of 6 weeks.
(§2) Blood tests in certain patients indicated an increase in CD4 T-cell counts from 350 to 1000, and a rapid reduction of PCR (Polymerase chain reaction) (viral load) of 120,000 to 500/ml within three weeks with as little as three treatments. […] The PCR test conducted was the Roche amplicor HIV monitor. A viral load of <500/ml plasma is considered to be undetectable.
(§3) A daily virological serology workout to establish total body virus count and to monitor improvements in the immune status of the patient (CD4+ T-helper cells) and prognostic factors were also conducted. The serology workout was based on p24 antigen and quantitative PCR or, optionally, by other methods. A weekly determination of CD4 counts and […] was also conducted specifically to monitor improvements in the patient's immune status and prognosis. All clinical and laboratory data were fed into a centralized data system to facilitate rapid response to any detrimental change so as to curtail treatment to maximize clinical effect and minimize potential side effects.

HIV-1 [1] = assay: Example 7: HIV-1 viral load by quantitative PCR (Roche amplicor HIV monitor); type: in vivo, human; conditions: certain patients; reduction from 120,000; within three weeks, as little as three treatments
Description: as §1, §2, §3

[2] = system: virus particles, e.g. the capsid; reverse transcriptase; protease; assay: In vitro tests of DMF on virus particles
CD4+ T cell = assay: Example 8 pilot study: CD4+ T cell count (Coulter analysis); type: in vivo, human
Description: (§4) A pilot study was conducted to evaluate the efficacy of transdermal DMF in the treatment of patients infected with HIV. Informed consent was obtained from each patient. Seropositive status was verified by Western blot using a commercial kit for detecting antibodies to p24 (Abbott Diagnostics) and the presence of HIV-1 was documented by quantitative PCR using a commercial kit (Roche Amplicor).
(§5) Dermal patches 9 cm in diameter were used within 12 hours of manufacture. […] The patches were visually inspected to verify the absence of leakage and were weighed on an analytical balance to verify less than 10% deviation from a total mass of 8.153 g. The patches were applied to the skin of the forearm and secured with Elastoplast™ bandages. Either one or two patches were used for the initial dose, as determined from the predicted skin transfer rate of 9.4 mg/cm^2 /hr and the patient's body weight.
(§6) A staged dose of DMF was used, with two-hourly blood and urine sampling to determine peak plasma DMF levels. […] Initial evaluation included daily determination of:
c) Coulter analysis of CD4+ and CD8+ counts and CD4/CD8 ratio;

HIV-1 [3] = assay: Example 8 pilot study: HIV-1 load by quantitative PCR (Roche Amplicor); type: in vivo, human
Description: as §4, §5, §6
d) Quantitative estimates of HIV-1 load by PCR (Roche Amplicor) and analysis of antibody to p24 (Abbott);

[4] = Example 8 pilot study: body weight; type: in vivo, human
Description: as §4, §5, §6
a) vital signs and body weight;

HIV [5] = assay: Example 8 pilot study: clinical condition and Karnofsky performance scale in HIV infected patients; type: in vivo, human
Description: as §4, §5, §6
b) clinical checklist and Karnofsky score;
(See Karnofsky et al., […], Cancer 1:634-656). […] Additional anti-microbial therapy for secondary infections was rarely needed. […] Clinical improvement correlated well with disease status as assessed by viral load and CD4+ T cell count.

[6] = Example 8 pilot study: adverse effects and liver enzymes; type: in vivo, human
Description: as §4, §5, §6
b) serum urea, creatinine, glucose, sodium, potassium, ALT, AST, alkaline phosphatase and total bilirubin;

[7] = Absorption of liquid DMF through human skin; type: in vivo; conditions: two patches of diameter 9 cm, 127 cm^2 skin
Description: For transdermal administration of a polar compound, the rate of absorption is determined by the skin of the subject. […] Accordingly, the desired rate of absorption may be achieved by controlling the surface area of the skin exposed to the drug, as by determining the area of each patch and the number of patches applied to the skin.

[8] = Physicochemical properties of DMF; conditions: gel patches
[9] = cited from earlier work
HIV [10] = conditions: certain cultured cell lines; cited from earlier work
[11] = system: Human Herpes Virus 6 (HHV-6); conditions: certain cultured cell lines; cited from earlier work
transformed cells = conditions: in vitro, certain transformed cells; cited from earlier work
malignant cells = conditions: cells treated in vitro, then inoculated into nude mice; cited from earlier work
human cancer xenografts = conditions: intraperitoneal injection, nude mice; cited from earlier work

CN(C)C=O [DMF, N,N'-dimethylformamide]
CD4 T-cell count (CD4 T-cell): 1000
PCR viral load (HIV-1 [1]): 500 mL⁻¹
effect on virus particles ([2]; in vitro): it appears that the solvent properties of DMF dissolve the virus particles, e.g. the capsid
apparent mode of action ([2]; it appears as if): acts as at least one of a reverse transcriptase inhibitor and a protease inhibitor
CD4+ T cell count (CD4+ T cell; Patient 1, after 7 weeks, from 39): 138 cells/μl
CD4+ T cell count (CD4+ T cell; Patient 2, after 9 weeks, from 460): 720 cells/μl
CD4+ T cell count (CD4+ T cell; Patient 3, after 9 weeks, from 140): 640 cells/μl
CD4+ T cell count (CD4+ T cell; Patient 4, after 18 weeks, from 249): 450 cells/μl
CD4+ cell count (CD4+ T cell; Patient 5, after 19 weeks, from 260): 450 cells/μl
CD4+ T cell count (CD4+ T cell; Patient 6, after 5 weeks, from 354): 396 cells/μl
CD4+ T cell count (CD4+ T cell; Patient 7, after 9 treatments, initial 29): 35 cells/μl
CD4+ T cell count (CD4+ T cell; Patient 7, after the first treatment, initial 29): 14 cells/μl
CD4+ T cell count (CD4+ T cell; Patient 8, after 8 weeks, from 200): 240 cells/μl
increase in CD4+ T cell counts (CD4+ T cell; after 42 days, Gompertz curve fit, seven out of eight patients): 73.4%
PCR-measured viral load (HIV-1 [3]; Patient 1, after 7 weeks, from 222,000): 160,000 copies/ml
PCR-measured viral load (HIV-1 [3]; Patient 2, after 9 weeks, from 29,000): 13,000 copies/ml
PCR-measured viral load (HIV-1 [3]; Patient 3, after 9 weeks, from 250,000): 50,000 copies/ml
PCR-measured viral load (HIV-1 [3]; Patient 4, after 18 weeks, from 13,000): 4,000 copies/ml
PCR-measured viral load (HIV-1 [3]; Patient 5, after 19 weeks, from 120,000): 24,000 copies/ml
PCR-measured viral load (HIV-1 [3]; Patient 6, after 5 weeks, from 156,000): 13,000 copies/ml
PCR-measured viral load (HIV-1 [3]; Patient 7, after 9 treatments, initial 1,156,000): 9,000 copies/ml
PCR-measured viral load (HIV-1 [3]; Patient 8, after 8 weeks, from 1,200,000): 250,000 copies/ml
decline in PCR-measured viral load (HIV-1 [3]; after 42 days, Gompertz curve fit, five out of eight patients): 88.8%
body weight ([4]; Patient 1, after 7 weeks, from 74.2): 100 kg
body weight ([4]; Patient 2, after 9 weeks, from 58.4): 63.0 kg
body weight ([4]; Patient 3, after 10 weeks, from 81.9): 96.0 kg
body weight ([4]; Patient 4, after 18 weeks, from 81.5): 90.4 kg
body weight ([4]; Patient 5, after 19 weeks, from 75.4): 84.6 kg
body weight ([4]; Patient 6, after 5 weeks, from 56.0): 58.0 kg
body weight ([4]; Patient 7, after 9 treatments, from 46.5): 49.0 kg
body weight ([4]; Patient 8, after 8 weeks, from 48.1): 52.2 kg
weight gain ([4]; all patients): All the patients gained weight
need for additional anti-microbial therapy for secondary infections (HIV [5]; 8 patients): rarely needed
neurological symptoms and Herpes viral infections (HIV [5]; 8 patients): Improvement in neurological symptoms and Herpes viral infections was remarkable
general condition, Karnofsky performance scale (HIV [5]; 8 patients, before and after treatment (FIG. 4)): every patient showed improved general condition
clinical outcome (HIV [5]; Patient 1, after 7 weeks): appetite had improved, the respiratory difficulties had resolved, the patient appeared clinically well and started exercising again
clinical outcome (HIV [5]; Patient 2, after 9 weeks): herpetic sores had resolved, the limb pains had disappeared and the patient appeared clinically well
clinical outcome (HIV [5]; Patient 3, after 10 weeks): the patient was clinically well and no longer complained of pain in the limbs
clinical outcome (HIV [5]; Patient 4, after 18 weeks): The patient appeared clinically well and had no active medical complaints
clinical outcome (HIV [5]; Patient 5, after 19 weeks): The secondary infections had resolved and the patient appeared clinically well
clinical outcome (HIV [5]; Patient 6, after 5 weeks): The patient was clinically well
clinical outcome (HIV [5]; Patient 7, after 9 treatments): The patient felt well and had returned to full-time employment
clinical outcome (HIV [5]; Patient 8, after 8 weeks): the Herpes lesions had entirely resolved
clinical improvement (HIV [5]; after 2-3 weeks of treatment): Virtually all patients showed clinical improvement
general fatigue and appetite (HIV [5]; within the first 14 days of DMF treatment): marked improvement in general fatigue and in appetite
maximum elevation of liver enzymes ([6]; four patients with transient elevation): three
local skin irritation at the area of application ([6]; most patients, after removal of the patches): mild local skin irritation
appearance of skin at the application site ([6]; most patients, probably due to intense hydration under the patch): maculopapular appearance
nausea ([6]; most patients, usually on day three after treatment): mild transient nausea
patients with transient elevation of liver enzymes ([6]; of 8 patients, in most cases returned to pre-treatment levels before next dose): Four
blistering ([6]; one case, resolved within 24 hours): slight blistering
nausea ([6]; one patient): moderate transient nausea
absorption rate [7]: about 1.2 g of DMF per hour
evaporation [8]: evaporates rapidly
acute toxicity ([9]; dermal, oral and inhalation): low acute dermal, oral and inhalation toxicity
hepatic toxicity ([9]; in vivo): reversible hepatic damage
mutagenicity and carcinogenicity ([9]; in vivo): not thought to be a mutagen or a carcinogen
skin and eye irritation ([9]; in vivo): mild to moderate skin and eye irritant
skin sensitization ([9]; in vivo): no indication of skin sensitizing properties
teratogenicity ([9]; in vivo): teratogenic
in vitro replication of HIV (HIV [10]): inhibit in vitro replication of HIV
in vitro replication of HHV-6 [11]: inhibit in vitro replication of HIV and Human Herpes Virus 6 (HHV-6)
differentiation (transformed cells): in vitro differentiating agent
tumorigenicity (malignant cells): reduce their tumorigenicity
growth of human cancer xenografts (human cancer xenografts): slow the growth of certain human cancer xenografts
